The first experiment relates to T1, purified human Hsp90.
T1 construct: purified human Hsp90 (Stressgen, SPP-770)
Nature of the experiment: Hsp90 binding assay: displacement of BODIPY-labeled geldanamycin measured by fluorescence polarization. Particulars: 5 μM compound; BODIPY-GM 10 nM, Hsp90 30 nM, overnight at room temperature. Here is the method: Binding of the Example Compounds to purified Hsp90 was assayed by measuring the displacement of BODIPY-labeled geldanamycin (BODIPY-GM) from purified human Hsp90, using a fluorescence polarization assay adapted from Kim et al. (J. Biomolec. Screening, 9(5):375-381 (2004)). Compound dilutions (in 100% DMSO) were added to black-bottom 96-well plates (Greiner Bio-One, Monroe, N.C.) in 2% DMSO final, and equal volumes of BODIPY-GM (10 nM final) and purified human Hsp90 (Stressgen, SPP-770; 30 nM final) (Assay Designs, Ann Arbor, Mich.) in assay buffer (20 mM HEPES-KOH pH 7.3, 50 mM KCl, 5 mM MgCl2, 20 mM Na2MoO4, 0.01% NP-40, 0.1 mg/mL bovine gamma globulin [P2045; Invitrogen, Carlsbad, Calif.], 2 mM DTT) were added sequentially to yield a final volume of 50 microliters. Plates were incubated overnight at room temperature. Parallel and perpendicular fluorescence measurements were read (Analyst AD plate reader; LJL BioSystems, Middletown, Conn.) with excitation/emission wavelengths of 485/530 nm. Background fluorescence (buffer only) was subtracted, and fluorescence polarization (FP) values, expressed in mP units, were calculated from parallel and perpendicular fluorescence readings as follows:
FP=(parallel−perpendicular)/(parallel+perpendicular)*1000.
Percent inhibition was calculated by normalizing the FP values to those obtained in parallel reactions containing DMSO and subtracting these normalized values from 100%. Intrinsic compound fluorescence was independently monitored, and FP data points confounded by compound fluorescence were excluded from the analysis.
For orientation: In fluorescence polarisation assays a small probe gives low polarisation when free and higher when bound to something large.
As for `Nc1ncn(CCC2CCN(C=O)CC2)c2nc(Sc3cc(O)c(O)cc3Br)nc1-2` [Example Compound 146, 4-(2-{6-amino-8-[(2-bromo-4,5-dihydroxyphenyl)thio]-3H-purin-3-yl}ethyl)piperidine-1-carbaldehyde], the “GM displacement from purified Hsp90 measured by FP Inhibition by 5 μM compd. (%)” value came out at 87.0%. On the same count and under the same terms, as for `Cc1cc(Br)c(Sc2nc3c(N)ncn(CCC4CCN(C(=O)[C@H](C)O)CC4)c-3n2)cc1C` [Example Compound 166, (2S)-1-[4-(2-{6-amino-8-[(2-bromo-4,5-dimethylphenyl)thio]-3H-purin-3-yl}ethyl)piperidin-1-yl]-1-oxopropan-2-ol], the figure is 75.0%.

Staying with this experiment, now noted: BODIPY-GM 10 nM, Hsp90 30 nM, overnight at room temperature; read-out: GM displacement from purified Hsp90 measured by FP IC 50.
Consider `Nc1ncnc2c1nc(Sc1cc(O)c(O)cc1Br)n2CCC1CCN(C=O)CC1` [Example Compound 145, 4-(2-{6-Amino-8-[(2-bromo-4,5-dihydroxyphenyl)thio]-9H-purin-9-yl}ethyl)piperidine-1-carbaldehyde], for which the IC50 was found to be 600 nM. Same read-out and setting: as for `Nc1ncnc2c1nc(Sc1cc3c(cc1Br)OCO3)n2CCC1CCNCC1` [Example Compound 147, 8-[(6-Bromo-1,3-benzodioxol-5-yl)thio]-9-(2-piperidin-4-ylethyl)-9H-purin-6-amine], the figure is 470 nM; as for `Nc1ncnc2c1nc(Sc1cc3c(cc1Br)OCO3)n2CCC1CCN(S(N)(=O)=O)CC1` [Example Compound 148, 4-(2-{6-Amino-8-[(6-bromo-1,3-benzodioxol-5-yl)thio]-9H-purin-9-yl}ethyl)piperidine-1-sulfonamide], 400 nM; as for `Nc1ncnc2c1nc(Sc1cc3c(cc1Br)OCO3)n2CCC1CCN(CCO)CC1` [Example Compound 149, 2-[4-(2-{6-Amino-8-[(6-bromo-1,3-benzodioxol-5-yl)thio]-9H-purin-9-yl}ethyl)piperidin-1-yl]ethanol], 450 nM. On to `Nc1ncnc2c1nc(Sc1cc3c(cc1Br)OCO3)n2CCC1CCN(CCCO)CC1` [Example Compound 150, 3-[4-(2-{6-Amino-8-[(6-bromo-1,3-benzodioxol-5-yl)thio]-9H-purin-9-yl}ethyl)piperidin-1-yl]propan-1-ol], for which the IC50 came out at 600 nM. On the same count and under the same terms, as for `NC(=O)C[C@H](N)C(=O)N1CCC(CCn2c(Sc3cc4c(cc3Br)OCCO4)nc3c(N)ncnc32)CC1` [Example Compound 151, (3S)-3-Amino-4-[4-(2-{6-amino-8-[(7-bromo-2,3-dihydro-1,4-benzodioxin-6-yl)thio]-9H-purin-9-yl}ethyl)piperidin-1-yl]-4-oxobutanamide], the figure is 57 nM; as for `NC(=O)C[C@H](N)C(=O)N1CCC(CCn2c(Sc3cc4c(cc3Br)OCO4)nc3c(N)ncnc32)CC1` [Example Compound 152, (3S)-3-Amino-4-[4-(2-{6-amino-8-[(6-bromo-1,3-benzodioxol-5-yl)thio]-9H-purin-9-yl}ethyl)piperidin-1-yl]-4-oxobutanamide], 114 nM; as for `NC(=O)CCC(=O)N1CCC(CCn2c(Sc3cc4c(cc3Br)OCCO4)nc3c(N)ncnc32)CC1` [Example Compound 153, 4-[4-(2-{6-Amino-8-[(7-bromo-2,3-dihydro-1,4-benzodioxin-6-yl)thio]-9H-purin-9-yl}ethyl)piperidin-1-yl]-4-oxobutanamide], 175 nM.

On to `Nc1ncnc2c1nc(Sc1cc3c(cc1Br)OCCO3)n2CCC1CCN(C2=NC(=O)CC2)CC1` [Example Compound 154, 5-[4-(2-{6-amino-8-[(7-bromo-2,3-dihydro-1,4-benzodioxin-6-yl)thio]-9H-purin-9-yl}ethyl)piperidin-1-yl]-3,4-dihydro-2H-pyrrol-2-one], for which the IC50 was 105 nM. The same measure, in the same setting: as for `NC(=O)CCC(=O)N1CCC(CCn2c(Sc3cc4c(cc3Br)OCO4)nc3c(N)ncnc32)CC1` [Example Compound 155, 4-[4-(2-{6-Amino-8-[(6-bromo-1,3-benzodioxol-5-yl)thio]-9H-purin-9-yl}ethyl)piperidin-1-yl]-4-oxobutanamide], the figure is 300 nM.

As for `Nc1ncnc2c1nc(Sc1cc3c(cc1Br)OCO3)n2CCC1CCN(C2=NC(=O)CC2)CC1` [Example Compound 156, 5-[4-(2-{6-amino-8-[(6-bromo-1,3-benzodioxol-5-yl)thio]-9H-purin-9-yl}ethyl)piperidin-1-yl]-3,4-dihydro-2H-pyrrol-2-one], the IC50 was found to be 160 nM.

For the molecule `CS(=O)(=O)NCC(=O)N1CCC(CCn2c(Sc3cc4c(cc3Br)OCCO4)nc3c(N)ncnc32)CC1` [Example Compound 157, N-{2-[4-(2-{6-Amino-8-[(7-bromo-2,3-dihydro-1,4-benzodioxin-6-yl)thio]-9H-purin-9-yl}ethyl)piperidin-1-yl]-2-oxoethyl}methanesulfonamide], the IC50 worked out at 195 nM. The same measure, in the same setting: as for `CS(=O)(=O)NCC(=O)N1CCC(CCn2c(Sc3cc4c(cc3Br)OCO4)nc3c(N)ncnc32)CC1` [Example Compound 158, N-{2-[4-(2-{6-Amino-8-[(6-bromo-1,3-benzodioxol-5-yl)thio]-9H-purin-9-yl}ethyl)piperidin-1-yl]-2-oxoethyl}methanesulfonamide], the figure is 360 nM; as for `CC(=O)NCC(=O)N1CCC(CCn2c(Sc3cc4c(cc3Br)OCCO4)nc3c(N)ncnc32)CC1` [Example Compound 159, N-{2-[4-(2-{6-Amino-8-[(7-bromo-2,3-dihydro-1,4-benzodioxin-6-yl)thio]-9H-purin-9-yl}ethyl)piperidin-1-yl]-2-oxoethyl}acetamide], 150 nM; as for `CC(=O)N[C@@H](C)C(=O)N1CCC(CCn2c(Sc3cc4c(cc3Br)OCCO4)nc3c(N)ncnc32)CC1` [Example Compound 160, N-{(1S)-2-[4-(2-{6-Amino-8-[(7-bromo-2,3-dihydro-1,4-benzodioxin-6-yl)thio]-9H-purin-9-yl}ethyl)piperidin-1-yl]-1-methyl-2-oxoethyl}acetamide], 200 nM. Take `CC(=O)N[C@H](C)C(=O)N1CCC(CCn2c(Sc3cc4c(cc3Br)OCCO4)nc3c(N)ncnc32)CC1` [Example Compound 161, N-{(1R)-2-[4-(2-{6-Amino-8-[(7-bromo-2,3-dihydro-1,4-benzodioxin-6-yl)thio]-9H-purin-9-yl}ethyl)piperidin-1-yl]-1-methyl-2-oxoethyl}acetamide]: the IC50 came out at 140 nM. For `Nc1ncnc2c1nc(Sc1cc3c(cc1Br)OCCO3)n2CCC1CCN(C(=O)CS)CC1` [Example Compound 162, 2-[4-(2-{6-Amino-8-[(7-bromo-2,3-dihydro-1,4-benzodioxin-6-yl)thio]-9H-purin-9-yl}ethyl)piperidin-1-yl]-2-oxoethanethiol], the IC50 worked out at 60 nM. Still for that read-out and setting: under `C[C@H](O)C(=O)N1CCC(CCn2c(Sc3cc4c(cc3Br)CCCC4)nc3c(N)ncnc32)CC1` [Example Compound 163, (2S)-1-[4-(2-{6-amino-8-[(3-bromo-5,6,7,8-tetrahydronaphthalen-2-yl)thio]-9H-purin-9-yl}ethyl)piperidin-1-yl]-1-oxopropan-2-ol] stands 205 nM; under `Cc1cc(Br)c(Sc2nc3c(N)ncnc3n2CCC2CCN(C(=O)[C@H](C)O)CC2)cc1C` [Example Compound 165, (2S)-1-[4-(2-{6-amino-8-[(2-bromo-4,5-dimethylphenyl)thio]-9H-purin-9-yl}ethyl)piperidin-1-yl]-1-oxopropan-2-ol], 240 nM; under `Nc1ncnc2c1nc(Sc1cc3c(cc1Br)CCO3)n2CCC1CCN(C=O)CC1` [Example Compound 167, 4-(2-{6-Amino-8-[(5-bromo-2,3-dihydro-1-benzofuran-6-yl)thio]-9H-purin-9-yl}ethyl)piperidine-1-carbaldehyde], 42 nM. Same read-out and setting: under `Nc1ncnc2c1nc(Sc1cc3occc3cc1Br)n2CCC1CCN(C=O)CC1` [Example Compound 168, 4-(2-{6-Amino-8-[(5-bromo-1-benzofuran-6-yl)thio]-9H-purin-9-yl}ethyl)piperidine-1-carbaldehyde] stands 95 nM. `CC(C)(C)OC(=O)N1CCC(CCn2c(Sc3cc4c(cc3C=O)OCO4)nc3c(N)ncnc32)CC1` [Example Compound 169, tert-Butyl 4-(2-{6-amino-8-[(6-formyl-1,3-benzodioxol-5-yl)thio]-9H-purin-9-yl}ethyl)piperidine-1-carboxylate]: the IC50 amounted to 1900 nM. The same measure, in the same setting: under `COC(=O)c1cc2c(cc1Sc1nc3c(N)ncnc3n1CCC1CCN(C=O)CC1)OCO2` [Example Compound 170, Methyl 6-({6-amino-9-[2-(1-formylpiperidin-4-yl)ethyl]-9H-purin-8-yl}thio)-1,3-benzodioxole-5-carboxylate] stands 41 nM; under `CCOC(=O)c1cc2c(cc1Sc1nc3c(N)ncnc3n1CCC1CCN(C=O)CC1)OCO2` [Example Compound 171, ethyl 6-({6-amino-9-[2-(1-formylpiperidin-4-yl)ethyl]-9H-purin-8-yl}thio)-1,3-benzodioxole-5-carboxylate], 68 nM.

The record behind these values is patent US20100292255A1, “Therapeutic Compounds and Their Use in Treating Diseases and Disorders” (Myriad Pharmaceuticals, Inc., priority 2007, published 2010).
